Test results: publication PMC6320288 (Neuroscience letters, 2018)

Assays:
rat P2X4R (rP2X4R) = molecular target: T1, rat P2X4R (rP2X4R) (Rattus norvegicus, UniProt P51577); experiment: cell-based
T1 sequence (P51577 1-388): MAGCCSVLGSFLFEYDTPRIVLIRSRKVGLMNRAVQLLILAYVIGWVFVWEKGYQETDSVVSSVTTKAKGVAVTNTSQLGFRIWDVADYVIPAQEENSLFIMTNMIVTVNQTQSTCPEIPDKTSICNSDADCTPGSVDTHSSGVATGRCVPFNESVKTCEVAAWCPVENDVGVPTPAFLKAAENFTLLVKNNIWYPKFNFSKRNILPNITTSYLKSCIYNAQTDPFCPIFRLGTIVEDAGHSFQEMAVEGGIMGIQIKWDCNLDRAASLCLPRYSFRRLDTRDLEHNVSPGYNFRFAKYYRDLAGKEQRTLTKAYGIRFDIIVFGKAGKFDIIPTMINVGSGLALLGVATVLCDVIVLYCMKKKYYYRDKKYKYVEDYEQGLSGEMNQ

rat P2X3R = molecular target: T2, rat P2X3R (Rattus norvegicus, UniProt P49654); experiment: whole-cell patch clamp in transfected HEK293 cells; format: cell-based; settings: HEK293, read-out: % inhibition at 10 μM
T2 sequence (P49654 1-397): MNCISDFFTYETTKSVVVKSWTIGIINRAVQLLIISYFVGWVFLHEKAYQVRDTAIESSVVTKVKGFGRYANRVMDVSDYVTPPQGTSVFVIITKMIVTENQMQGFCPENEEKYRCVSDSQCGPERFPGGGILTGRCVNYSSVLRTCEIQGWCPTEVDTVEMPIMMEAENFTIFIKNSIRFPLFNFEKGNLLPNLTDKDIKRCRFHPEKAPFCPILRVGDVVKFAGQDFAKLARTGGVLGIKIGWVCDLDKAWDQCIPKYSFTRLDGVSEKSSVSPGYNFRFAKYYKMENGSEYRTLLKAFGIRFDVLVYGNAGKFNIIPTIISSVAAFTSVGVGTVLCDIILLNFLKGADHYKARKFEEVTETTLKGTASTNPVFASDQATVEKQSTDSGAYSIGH

SMILES | EC50 (rat P2X4R (rP2X4R)) | inhibition at 10 µM (rat P2X3R)
Nc1ncnc2c1ncn2[C@@H]1O[C@H](COP(=O)(O)OP(=O)(O)OP(=O)(O)O)[C@@H](O)[C@H]1O [ATP] | 4.7 ± 1.8 µM | –
O=C1CN=C(c2cccc(Br)c2)c2oc3ccccc3c2N1 [5-BDBD, 5-(3-bromophenyl)-1,3-dihydro-2H-benzofuro[3,2-e]-1,4-diazepin-2-one] | – | 35.9 ± 10.1%
